ChEMBL document CHEMBL1154847, “Steroidal saponins from Chlorophytum orchidastrum” (J Nat Prod, 2010)

Tests used:
[1] = test system: HT-29; test: Cytotoxicity against human HT-29 cells by MTT assay; assay type: functional, cell-based
[2] = test system: HCT-116; test: Cytotoxicity against human HCT116 cells by MTT assay; assay type: functional, cell-based

| Structure (SMILES) | IC50 [1] [µM] | IC50 [2] [µM] |
| --- | --- | --- |
| C[C@H]1CC[C@@]2(OC1)O[C@H]1C[C@H]3[C@@H]4CC[C@H]5C[C@@H](O[C@@H]6[C@@H](O)[C@H](OC[C@H]7O[C@@H](O[C@@H]8[C@@H](O)[C@H](O[C@H]9[C@H](O)[C@@H](CO)O[C@@H](O[C@@H]%10[C@H](O)[C@@H](O[C@@H]%11O[C@@H](C)[C@H](O)[C@@H](O)[C@H]%11O)[C@H](O)O[C@@H]%10CO)[C@@H]9O[C@@H]9OC[C@H](O)[C@H](O)[C@H]9O)OC[C@H]8O)[C@H](O)[C@@H](O[C@@H]8O[C@H](CO[C@@H]9O[C@@H](CO)[C@H](O)[C@H]9O)[C@@H](O)[C@H](O)[C@H]8O)[C@@H]7O)O[C@H]6CO)CC[C@]5(C)[C@H]4CC[C@]3(C)[C@H]1[C@@H]2C [ORCHIDASTROSIDE C] | 3.6 | 1.35 |
| C[C@H]1CC[C@@]2(OC1)O[C@H]1C[C@H]3[C@@H]4CC[C@H]5C[C@@H](O[C@@H]6[C@@H](O)[C@H](OC[C@H]7O[C@@H](O[C@@H]8[C@@H](O)[C@H](O[C@H]9[C@H](O)[C@@H](CO)O[C@@H](O[C@@H]%10[C@H](O)[C@@H](O)[C@H](O)O[C@@H]%10CO)[C@@H]9O[C@@H]9O[C@H](CO)[C@H](O)[C@H](O)[C@H]9O)O[C@H](CO)[C@H]8O)[C@H](O)[C@@H](O[C@@H]8O[C@H](CO[C@@H]9O[C@@H](CO)[C@H](O)[C@H]9O)[C@@H](O)[C@H](O)[C@H]8O)[C@@H]7O)O[C@H]6CO)[C@H](O)C[C@]5(C)[C@H]4CC[C@]3(C)[C@H]1[C@@H]2C [ORCHIDASTROSIDE E] | 7 | 7 |
| C[C@H]1CC[C@@]2(OC1)O[C@H]1C[C@H]3[C@@H]4CC[C@H]5C[C@@H](O[C@@H]6[C@@H](O)[C@H](OC[C@H]7O[C@@H](O[C@@H]8[C@@H](O)[C@H](O[C@H]9[C@H](O)[C@@H](CO)O[C@@H](O[C@@H]%10[C@H](O)[C@@H](O)[C@H](O)O[C@@H]%10CO)[C@@H]9O[C@@H]9O[C@H](CO)[C@H](O)[C@H](O)[C@H]9O)O[C@H](CO)[C@H]8O)[C@H](O)[C@@H](O[C@@H]8OC[C@@H](O)[C@H](O)[C@H]8O)[C@@H]7O)O[C@H]6CO)[C@H](O)C[C@]5(C)[C@H]4CC[C@]3(C)[C@H]1[C@@H]2C [ORCHIDASTROSIDE F] | 8.87 | 2.12 |
